According to article PMC5618791, “Double quick, double click reversible peptide “stapling”” (Chemical Science, 2017):
Starred links: 1 amine or outer side, 2 acyl side, 3 side chain; linkers in the order of their positions; H or OH if unused. Positions of bridges follow the written chain, without caps; N, C: chain ends. Non-standard residues stand in square brackets, D forms with d. Residues, ends and D or L forms follow the SMILES beside them. Maleimide(3,4-diyl) = O=C1NC(=O)C([*:2])=C1[*:1]; Nle = CCCC[C@H](N)C(=O)O

Tests used:
[1] = Trypsin proteolysis followed by LC-MS; format: in vitro ADME; details: trypsin from bovine pancreas (isolated protease), pH 7.5, 1:10000 enzyme/substrate ratio, 50 mM phosphate buffer, 200 mM NaCl, pH 7.50, peptide 200 μM stock, 5% DMSO, LC-MS of intact peptide at 0, 5, 12, 21, 45, 90 min, read-out: t1/2, trypsin proteolysis
Description: Proteolysis studies on BID peptides
Trypsin, modified sequencing grade from bovine pancreas (lyophilized powder, MW = 24 kDa, ≥ 4 units/mg protein) was purchased from Sigma-Aldrich and used without further purification. BID peptides (200 µM stock in PBS buffer pH 7.50, 5% DMSO) were treated with Trypsin (0.02 µM stock solutions in PBS buffer pH 7.50) in a 1:10000 enzyme/substrate ratio.
The degradation was followed with LCMS (Aeris Peptide LC-Column XB-C18 2.6 µm, 100x2.1 mm, injection volume: 5 µL, acetonitrile/water (0.1% formic acid) 5-95% gradient).
The degradation pattern of each peptide (figure A) could be identified by mass spectrometry.
The cleavage sites are marked by dotted lines and the subsequent fragment masses, shown in squares, are allocated to a number which is reported on the LCMS graph (graph B).
The LCMS traces (graph B) of each peptide incubated with Trypsin were recorded at the following successive times: 0, 5, 12, 21, 45 and 90 min.
(graph C) was integrated to extract kinetic values.

[2] = molecular target: BODIPY-BAK/Bcl-xL interaction (Homo sapiens, UniProt Q07817); assay: Fluorescence anisotropy competition assay, BODIPY-BAK/Bcl-xL; format: binding; details: 25 nM tracer, 150 nM protein, 50 mM phosphate, 200 mM NaCl, 0.02 mg mL-1 BSA, pH 7.50; 1 h, room temperature; triplicate; read-out: IC50, inhibition of the BODIPY-BAK/Bcl-xL interaction
Chain of BODIPY-BAK/Bcl-xL interaction (Q07817 whole entry): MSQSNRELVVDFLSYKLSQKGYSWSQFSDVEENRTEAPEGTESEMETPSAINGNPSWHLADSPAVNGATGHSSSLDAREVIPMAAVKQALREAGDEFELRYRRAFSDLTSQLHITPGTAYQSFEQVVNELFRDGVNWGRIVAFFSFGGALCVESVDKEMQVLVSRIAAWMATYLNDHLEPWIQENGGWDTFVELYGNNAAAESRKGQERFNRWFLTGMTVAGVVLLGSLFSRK
Description: (§1) Fluorescence anisotropy assays were performed in 384-well black plates (Greiner Bio-one).
(§2) Each experiment was run in triplicate and fluorescence anisotropy was measured using a Perkin Elmer EnVisionTM 2103 MultiLabel plate reader. […]
- 50 mM phosphate buffer at pH 7.5, containing 200 mM NaCl and 0.02 mg.mL-1 bovine serum albumin (BSA) for BODIPY-BAK/Bcl-xL. […]
(§3) 20 µL of assay buffer were first added to each well.
(§4) For each competition assay, 20 µL of a solution of α-helix mimetics (1 mM in 90:10 (v/v) assay buffer: DMSO) were added to the first column. The solution was well mixed and 20 µL were taken out and added to the next column and so on. This operation consisted on serial dilution of the peptides across the plate (24-points, 1/2 serial dilution). The tracer peptide and the targeted protein were added to each well to give a final concentration of 25 nM and […]
For each direct titration assay, 20 µL of a solution of the protein (60 µM in assay buffer) were added to the first column. […]
(§5) For control wells in both assays, the tracer peptide was replaced with an identical volume of assay buffer. […] Plates were read after 1 h of incubation […]
(§6) The average anisotropy (across three experimental replicates) and the standard deviation of these values were then calculated and fit to a sigmoidal logistic model (Equation 3) using OriginPro 9.0 which provided the IC50 and error values.

[3] = molecular target: FITC-BID/Mcl-1 interaction (Homo sapiens, UniProt Q07820); assay: Fluorescence anisotropy competition assay, FITC-BID/Mcl-1; format: binding; details: 25 nM tracer, 150 nM protein, 50 mM Tris, 150 mM NaCl, 0.61% Triton X-100, pH 7.40; 1 h, room temperature; triplicate; read-out: IC50, inhibition of the FITC-BID/Mcl-1 interaction
Chain of FITC-BID/Mcl-1 interaction (Q07820 172-327 limits assumed): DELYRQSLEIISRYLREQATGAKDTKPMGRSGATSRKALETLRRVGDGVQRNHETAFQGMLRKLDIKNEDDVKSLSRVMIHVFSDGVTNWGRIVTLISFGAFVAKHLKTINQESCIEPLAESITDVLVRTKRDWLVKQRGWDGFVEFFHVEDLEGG
Description: fluorescein-labelled FITC-Ahx-BID (80-102) was synthesised and purified as stated […]
as §1, §2
- 50 mM phosphate buffer at pH 7.5, containing 200 mM NaCl and 0.05% of tween for […]
as §3, §4, §5, §6

[4] = Circular dichroism, % helicity; format: physicochemical; details: CD, peptide 10-20 μM, calculated from MRE at 222 nm
Description: Samples were prepared in two different solvent systems (30% TFE:H2O, 30% CH3CN:water) to concentrations between 10 - 20 μM (Figure S 23). Considering the high number of hydrophobic residues in BID and S peptides, organic co-solvents were used to ensure good solubility and avoid aggregation at concentrations high enough for CD analyses. DMSO stocks of peptides were not used for CD due to its high absorbance below 230 nm.
The raw circular dichroism data obtained for the peptides was processed by the subtraction of the solvent signal and converted into a mean residue ellipticity:
Where = molar ellipticity[θ]MRE per residue, θ = circular dichroism at a given wavelength, c = molar concentration, l = path length in cm, R = number of residues in the peptide sequence.
Calculation of % helicity was performed by the following equation:[4]
Where: θH = Theoretical MRE for 100% helicity at 222 nm, θ0 = Theoretical MRE for 100% helicity at 222 nm at 0 °C = –44000, (∂θ/∂T) = temperature dependence of infinite helix = +250, T = temperature in °C, x = 3, Nr = number of residues in the peptide.
In both solvent systems, it is noteworthy that STA-peptides are more helical than RED-peptides or WT-peptides; with the exception of constrained S-Cys-peptides. The use of TFE as co-solvent in water enhances the α-helicity of both series of peptides compared to the use of acetonitrile in water. […]
thus bioactive) conformation. The S peptides show a low helix propensity which is consistent […]
Figure S 23: CD spectra A. and B. in 30% TFE:H 2O; C. and D. in 30% CH3CN:H 2O.
Table 1: Percentage of helicity in the three solvent systems […]
(also on this page, place not known: Molar residue ellipticity (deg.cm 2 .dmol -1 ) Molar residue ellipticity (deg.cm 2 .dmol -1 ) Molar residue ellipticity (deg.cm 2 .dmol -1 ) Molar residue ellipticity (deg.cm 2 .dmol -1 ) TFE:H2O; CH3CN:H2O.)

CCCC[C@H](NC(=O)[C@H](CS)NC(=O)[C@H](CC(=O)O)NC(=O)CNC(=O)[C@@H](NC(=O)[C@H](CS)NC(=O)[C@H](C)NC(=O)[C@H](CC(C)C)NC(=O)[C@H](Cc1c[nH]cn1)NC(=O)[C@H](CCCNC(=N)N)NC(=O)[C@H](C)NC(=O)[C@@H](NC(=O)[C@H](CC(N)=O)NC(=O)[C@H](CCCNC(=N)N)NC(=O)[C@@H](NC(=O)[C@@H](NC(=O)[C@H](CC(=O)O)NC(=O)[C@H](CCC(=O)O)NC(C)=O)[C@@H](C)CC)[C@@H](C)CC)[C@@H](C)CC)C(C)C)C(=O)N[C@@H](CC(=O)O)C(=O)N[C@@H](CCCNC(=N)N)C(=O)N[C@@H](CO)C(=O)N[C@H](C(=O)N[C@@H](Cc1c[nH]c2ccccc12)C(N)=O)[C@@H](C)CC [1a] (Ac-EDIIRNIARHLACVGDC[Nle]DRSIW-NH2)
half-life [1]: 22 min
IC50 [2]: 70.9 µM
IC50 [3]: 23.4 µM

CCCC[C@H](NC(=O)[C@H](CCS)NC(=O)[C@H](CC(=O)O)NC(=O)CNC(=O)[C@@H](NC(=O)[C@H](CCS)NC(=O)[C@H](C)NC(=O)[C@H](CC(C)C)NC(=O)[C@H](Cc1c[nH]cn1)NC(=O)[C@H](CCCNC(=N)N)NC(=O)[C@H](C)NC(=O)[C@@H](NC(=O)[C@H](CC(N)=O)NC(=O)[C@H](CCCNC(=N)N)NC(=O)[C@@H](NC(=O)[C@@H](NC(=O)[C@H](CC(=O)O)NC(=O)[C@H](CCC(=O)O)NC(C)=O)[C@@H](C)CC)[C@@H](C)CC)[C@@H](C)CC)C(C)C)C(=O)N[C@@H](CC(=O)O)C(=O)N[C@@H](CCCNC(=N)N)C(=O)N[C@@H](CO)C(=O)N[C@H](C(=O)N[C@@H](Cc1c[nH]c2ccccc12)C(N)=O)[C@@H](C)CC [1b]
half-life [1]: 32 min
Percentage of helicity, 30% TFE:H2O [4]: 23%

CCCC[C@H](NC(=O)[C@@H]1CSC2=C(SC[C@H](NC(=O)[C@H](C)NC(=O)[C@H](CC(C)C)NC(=O)[C@H](Cc3c[nH]cn3)NC(=O)[C@H](CCCNC(=N)N)NC(=O)[C@H](C)NC(=O)[C@@H](NC(=O)[C@H](CC(N)=O)NC(=O)[C@H](CCCNC(=N)N)NC(=O)[C@@H](NC(=O)[C@@H](NC(=O)[C@H](CC(=O)O)NC(=O)[C@H](CCC(=O)O)NC(C)=O)[C@@H](C)CC)[C@@H](C)CC)[C@@H](C)CC)C(=O)N[C@@H](C(C)C)C(=O)NCC(=O)N[C@@H](CC(=O)O)C(=O)N1)C(=O)NC2=O)C(=O)N[C@@H](CC(=O)O)C(=O)N[C@@H](CCCNC(=N)N)C(=O)N[C@@H](CO)C(=O)N[C@H](C(=O)N[C@@H](Cc1c[nH]c2ccccc12)C(N)=O)[C@@H](C)CC [3a] (Ac-EDIIRNIARHLACVGDC[Nle]DRSIW-NH2; linker 13-17 via Maleimide(3,4-diyl))
half-life [1]: 75 min
IC50 [2]: 19.4 µM
IC50 [3]: 16.6 µM

CCCC[C@H](NC(=O)[C@@H]1CCSC2=C(SCC[C@H](NC(=O)[C@H](C)NC(=O)[C@H](CC(C)C)NC(=O)[C@H](Cc3c[nH]cn3)NC(=O)[C@H](CCCNC(=N)N)NC(=O)[C@H](C)NC(=O)[C@@H](NC(=O)[C@H](CC(N)=O)NC(=O)[C@H](CCCNC(=N)N)NC(=O)[C@@H](NC(=O)[C@@H](NC(=O)[C@H](CC(=O)O)NC(=O)[C@H](CCC(=O)O)NC(C)=O)[C@@H](C)CC)[C@@H](C)CC)[C@@H](C)CC)C(=O)N[C@@H](C(C)C)C(=O)NCC(=O)N[C@@H](CC(=O)O)C(=O)N1)C(=O)NC2=O)C(=O)N[C@@H](CC(=O)O)C(=O)N[C@@H](CCCNC(=N)N)C(=O)N[C@@H](CO)C(=O)N[C@H](C(=O)N[C@@H](Cc1c[nH]c2ccccc12)C(N)=O)[C@@H](C)CC [3b]
half-life [1]: 84 min
Percentage of helicity, 30% CH3CN:H2O ([4]; 30% CH3CN:H2O): 43%
Percentage of helicity, 30% TFE:H2O [4]: 47%
